Source: publication PMC4719150 (Biochemistry, 2015)
Like-named read-outs stand apart in the source and are kept apart here. Numbered stars: 1 amine (or outer) side, 2 acyl side, 3 side chain; on linkers, the order of the positions; unused ones are H or OH. Bridge positions count the residues as written; N and C are the ends. Square brackets hold non-standard residues; d marks the D form. Peptide text beside a SMILES is read from it. I, II: the chains in the order shown. Actinocin(9to1) = Cc1c2oc3c(C)ccc(C(=O)[*:1])c3nc-2c(C(=O)[*:2])c(N)c1=O; NMeV = CN[C@H](C(=O)O)C(C)C; Sar = CNCC(=O)O

Columns and labels:
recIAV WSN-NanoLuc [1] = details: for EC50: read-out: EC50 IAV WSN-nanoLuc
BEAS-2B cells = details: uninfected BEAS-2B cells, highest concentration assessed 10 μM, tox = less than 50% cell viability after 44 hours at ≤10 μM; for CC50: read-out: CC50 (PrestoBlue cell viability)
[2] = test system: recRSV A2-L19FD489E-fireSMASh; details: for EC50: read-out: EC50 RSV A2-L19FD489E-fireSMASh
in vitro = details: human
recIAV WSN-NanoLuc [3] = assay: microbe, parasite or virus in culture; type: cell-based; details: Influenza A virus, BEAS-2B, 40 h, read-out: % Inhibition (anti-IAV)
recRSV A2-L19F-renilla = assay: microbe, parasite or virus in culture; type: cell-based; details: human respiratory syncytial virus, BEAS-2B, read-out: EC50 RSV A2-L19F-renilla
recIAV WSN-NanoLuc [4] = assay: microbe, parasite or virus in culture; details: Influenza A virus, BEAS-2B, read-out: EC50 IAV WSN-nanoLuc
[5] = test system: recRSV-L19FD489E-fireSMASh; assay: Peak progeny virus titers after incubation with ASV; type: cell-based, respiratory syncytial virus; details: 3 μM ASV versus vehicle
[6] = test system: fireSMASh (firefly luciferase fused to SMASh tag); assay: Firefly luciferase activity after virus growth in the presence of ASV; type: cell-based; details: growth of recRSV-L19FD489E-fireSMASh in the presence of 3 μM ASV; 44 hours post-infection

Compound: CCCCCCCCCCCCCCCCCCOCC(COP(=O)([O-])OCC[N+](C)(C)C)OC (centres unmarked) [ET-18-OCH3]
- EC50 IAV WSN-nanoLuc (recIAV WSN-NanoLuc [1]): inactive^e
- CC50 (BEAS-2B cells): > 10 µM
- EC50 RSV A2-L19FD489E-fireSMASh [2]: inactive^e

Compound: CCOC(=O)C1=C(C)NC(C)=C(C(=O)OC)C1c1cccc([N+](=O)[O-])c1 (centres unmarked) [Nitrendipine]
- EC50 IAV WSN-nanoLuc (recIAV WSN-NanoLuc [1]): inactive^e
- EC50 RSV A2-L19FD489E-fireSMASh [2]: inactive^e
- CC50 (in vitro): > 10 µM

Compound: COc1cc([C@@H]2c3cc4c(cc3[C@@H](O[C@@H]3O[C@@H]5CO[C@@H](C)O[C@H]5[C@H](O)[C@H]3O)[C@H]3COC(=O)[C@H]23)OCO4)cc(OC)c1O [Etoposide]
- inhibition at 5 µM (recIAV WSN-NanoLuc [3]): 56 ± 5.6%

Compound: CC(C)[C@]12O[C@H]1[C@@H]1O[C@]13[C@]1(O[C@H]1C[C@H]1C4=C(CC[C@@]13C)C(=O)OC4)[C@@H]2O [Triptolide]
- SI (CC50/EC50) value at dose-response testing (recIAV WSN-NanoLuc [1]): below two
- EC50 (recRSV A2-L19F-renilla): 0.6 µM
- inhibition at 5 µM (recIAV WSN-NanoLuc [3]): 103 ± 1.2%
- EC50 (recIAV WSN-NanoLuc [4]): 0.15 µM
- CC50 (in vitro): 0.3 µM

Compound: CC(=O)[C@]1(O)Cc2c(O)c3c(c(O)c2[C@@H](O[C@H]2C[C@H](N)[C@H](O)[C@H](C)O2)C1)C(=O)c1ccccc1C3=O [Idarubicin]
- CC50 (PrestoBlue cell viability) (BEAS-2B cells): tox^d
- inhibition at 5 µM (recIAV WSN-NanoLuc [3]): 97 ± 1%

Compound: O=C1C(=Cc2ccccc2)C[C@@]2(O)[C@H]3Cc4ccc(O)c5c4[C@@]2(CCN3CC2CC2)[C@H]1O5 [BNTX-7]
- EC50 IAV WSN-nanoLuc (recIAV WSN-NanoLuc [1]): inactive^e
- effect on IAV reporter strain (recIAV WSN-NanoLuc [1]): unaffected
- CC50 (BEAS-2B cells): > 10 µM
- SI RSV [CC50/EC50] [2]: SIRSV >4
- EC50 [2]: 2.5 µM

Compound: Cc1c2oc3c(C)ccc(C(=O)N[C@@H]4C(=O)N[C@H](C(C)C)C(=O)N5CCC[C@H]5C(=O)N(C)CC(=O)N(C)[C@@H](C(C)C)C(=O)O[C@@H]4C)c3nc-2c(C(=O)N[C@@H]2C(=O)N[C@H](C(C)C)C(=O)N3CCC[C@H]3C(=O)N(C)CC(=O)N(C)[C@@H](C(C)C)C(=O)O[C@@H]2C)c(N)c1=O [Actinomycin D] (I: T[dV]P[Sar][NMeV] / II: T[dV]P[Sar][NMeV]; ester I:1-I:C, II:1-II:C; linker I:N-II:N via Actinocin(9to1))
- inhibition at 5 µM (recIAV WSN-NanoLuc [3]): 104 ± 1.5%

Compound: CCN(CC)CCNC(=O)c1c(C)[nH]c(/C=C2\C(=O)Nc3ccc(F)cc32)c1C [Sunitinib]
- CC50 (PrestoBlue cell viability) (BEAS-2B cells): tox^d

Compound: NC(=O)c1ncn([C@@H]2O[C@H](CO)[C@@H](O)[C@H]2O)n1 [Ribavirin]
- SI IAV [CC50/EC50] (recIAV WSN-NanoLuc [1]): SIIAV >2.2 SIRSV >3.9 broad spectrum [84]
- SI RSV [CC50/EC50] [2]: SIIAV >2.2 SIRSV >3.9 broad spectrum [84]
- EC50 (recRSV A2-L19F-renilla): 2.9 µM
- EC50 (recIAV WSN-NanoLuc [4]): 4.5 µM
- CC50 (in vitro): > 10 µM

Compound: CNc1ccc2oc(C[C@H]3O[C@@]4(CC[C@H]3C)O[C@H]([C@H](C)C(=O)c3ccc[nH]3)[C@H](C)C[C@H]4C)nc2c1C(=O)O [Calcimycin]
- CC50 (PrestoBlue cell viability) (BEAS-2B cells): tox^d

Compound: Cn1nnc2c(C(N)=O)ncn2c1=O [Temozolomide]
- inhibition at 5 µM (recIAV WSN-NanoLuc [3]): 55 ± 3.2%

Compound: Cn1c(=O)c(-c2c(Cl)cccc2Cl)cc2cnc(Nc3ccc(N4CCOCC4)cc3)nc21 [PD173952]
- CC50 (PrestoBlue cell viability) (BEAS-2B cells): tox^d

Compound: Oc1ccc(/C=C/c2ccc(/C=C/c3ccc(O)cc3)c(Br)c2)cc1 [K114]
- EC50 IAV WSN-nanoLuc (recIAV WSN-NanoLuc [1]): inactive^e
- CC50 (BEAS-2B cells): > 10 µM
- EC50 RSV A2-L19FD489E-fireSMASh [2]: inactive^e

Compound: CC[C@H]1CN2CCc3cc(OC)c(OC)cc3[C@@H]2C[C@@H]1C[C@H]1NCCc2cc(OC)c(OC)cc21 [Emetine]
- CC50 (PrestoBlue cell viability) (BEAS-2B cells): tox^d

Compound: Cc1c(-c2ccc(-c3ccccc3F)cc2)nc2ccc(F)cc2c1C(=O)O [Brequinar]
- SI IAV [CC50/EC50] (recIAV WSN-NanoLuc [1]): SIIAV >3.8 SIRSV >6.3 conf. broad spectrum [81], [82]
- SI RSV [CC50/EC50] [2]: SIIAV >3.8 SIRSV >6.3 conf. broad spectrum [81], [82]
- EC50 (recRSV A2-L19F-renilla): 1.8 µM
- EC50 (recIAV WSN-NanoLuc [4]): 2.6 µM
- CC50 (in vitro): > 10 µM

Compound: CC1=C(/C=C/C(C)=C/C=C/C(C)=C/C(=O)Nc2ccc(O)cc2)C(C)(C)CCC1 [Fenretinide]
- EC50 IAV WSN-nanoLuc (recIAV WSN-NanoLuc [1]): inactive^e
- effect on IAV reporter strain (recIAV WSN-NanoLuc [1]): unaffected
- SI RSV [CC50/EC50] [2]: SIRSV >2.8 Dengue [62], HIV [61]
- EC50 (recRSV A2-L19F-renilla): 4.8 µM
- CC50 (in vitro): > 10 µM

Compound: COc1cccc2c1C(=O)c1c(O)c3c(c(O)c1C2=O)C[C@@](O)(C(=O)CO)C[C@@H]3O[C@H]1C[C@H](N)[C@@H](O)[C@H](C)O1 [Epirubicin]
- inhibition at 5 µM (recIAV WSN-NanoLuc [3]): 75 ± 3.1%

Compound: CC[C@]1(O)C[C@H]2CN(CCc3c([nH]c4ccccc34)[C@@](C(=O)OC)(c3cc4c(cc3OC)N(C=O)[C@H]3[C@@](O)(C(=O)OC)[C@H](OC(C)=O)[C@]5(CC)C=CCN6CC[C@]43[C@@H]65)C2)C1 [Vincristine]
- inhibition at 5 µM (recIAV WSN-NanoLuc [3]): 50 ± 2.9%

Compound: COC(=O)C[C@](O)(CCCC(C)(C)O)C(=O)O[C@@H]1C(OC)=C[C@]23CCCN2CCc2cc4c(cc2[C@H]13)OCO4 [Homoharringtonine]
- inhibition at 5 µM (recIAV WSN-NanoLuc [3]): 90 ± 2.6%

Compound: O=[N+]([O-])c1ccc2c(c1)S(=O)(=O)C=C2 [Stattic]
- SI IAV [CC50/EC50] (recIAV WSN-NanoLuc [1]): SIIAV 3
- EC50 (recIAV WSN-NanoLuc [1]): 3.3 µM
- CC50 (BEAS-2B cells): 10 µM
- EC50 [2]: 5.9 µM

Compound: CCN(CC)CCOc1ccc(Nc2ncc3cc(-c4c(Cl)cccc4Cl)c(=O)n(C)c3n2)cc1 [PD-166285]
- CC50 (PrestoBlue cell viability) (BEAS-2B cells): tox^d

Compound: CC(=O)N[C@H]1[C@H]([C@H](O)[C@H](O)CO)OC(C(=O)O)=C[C@@H]1N=C(N)N [Zanamivir]
- SI IAV [CC50/EC50] (recIAV WSN-NanoLuc [1]): SIIAV >500 IAV inhibitor [83]
- EC50 RSV A2-L19FD489E-fireSMASh [2]: Inactive
- EC50 (recIAV WSN-NanoLuc [4]): 0.02 µM
- CC50 (in vitro): > 10 µM

Compound: CN(CCOc1ccc(CC2SC(=O)NC2=O)cc1)c1ccccn1 (centres unmarked) [Rosiglitazone]
- inhibition at 5 µM (recIAV WSN-NanoLuc [3]): 35 ± 5%

Compound: Nc1nc2c(ncn2CCOCP(=O)(O)O)c(=O)[nH]1 [PMEG]
- SI IAV [CC50/EC50] (recIAV WSN-NanoLuc [1]): SIIAV 50 SIRSV 100 HPV [67]
- EC50 (recIAV WSN-NanoLuc [1]): 0.2 µM
- CC50 (BEAS-2B cells): 10 µM
- SI RSV [CC50/EC50] [2]: SIIAV 50 SIRSV 100 HPV [67]
- potency against RSV relative to IAV [2]: approximately 2 fold
- EC50 [2]: 0.1 µM

Compound: CN(Cc1cnc2nc(N)nc(N)c2n1)c1ccc(C(=O)N[C@@H](CCC(=O)O)C(=O)O)cc1 [Methotrexate]
- inhibition at 5 µM (recIAV WSN-NanoLuc [3]): 100 ± 0.6%

Compound: C=C[C@@H]1C[C@]1(NC(=O)[C@@H]1C[C@@H](Oc2ncc(OC)c3ccc(Cl)cc23)CN1C(=O)[C@@H](NC(=O)OC(C)(C)C)C(C)(C)C)C(=O)NS(=O)(=O)C1CC1 [ASV, Asunaprevir]
- effect on progeny virus titers [5]: no effect
- reduction of firefly luciferase activity [6]: approximately 90%

Compound: Cc1nc2ccc(CN(C)c3ccc(C(=O)N[C@@H](CCC(=O)O)C(=O)O)s3)cc2c(=O)[nH]1 [Raltitrexed]
- inhibition at 5 µM (recIAV WSN-NanoLuc [3]): 60 ± 6.5%

Compound: CC(=O)OC[C@H]1O[C@@H]([S-])[C@H](OC(C)=O)[C@@H](OC(C)=O)[C@@H]1OC(C)=O.CCP(CC)CC.[Au+] [Auranofin]
- CC50 (PrestoBlue cell viability) (BEAS-2B cells): tox^d

Compound: COc1cc2nc(N3CCCN(C)CC3)nc(NC3CCN(Cc4ccccc4)CC3)c2cc1OC [BIX 01294]
- EC50 IAV WSN-nanoLuc (recIAV WSN-NanoLuc [1]): inactive^e
- EC50 RSV A2-L19FD489E-fireSMASh [2]: inactive^e
- CC50 (in vitro): > 10 µM

Compound: c1cnc2c(c1)ccc1cccnc12 [Phenanthroline]
- CC50 (in vitro): 2.4 µM

Compound: C[n+]1cc2c3c(ccc2c2ccc4cc5c(cc4c21)OCO5)OCO3 [Sanguinarine]
- CC50 (PrestoBlue cell viability) (BEAS-2B cells): tox^d

Compound: Nc1nc2c(c(=O)[nH]1)C[C@@H](CCc1ccc(C(=O)N[C@@H](CCC(=O)O)C(=O)O)cc1)CN2 [Lometrexol]
- CC50 (PrestoBlue cell viability) (BEAS-2B cells): tox^d

Compound: Nc1nc(N)c2nc(-c3ccccc3)c(N)nc2n1 [Triamterene]
- EC50 IAV WSN-nanoLuc (recIAV WSN-NanoLuc [1]): inactive^e
- EC50 RSV A2-L19FD489E-fireSMASh [2]: inactive^e
- CC50 (in vitro): > 10 µM

Compound: Nc1ccn([C@@H]2O[C@H](CO)[C@@H](O)C2(F)F)c(=O)n1 [Gemcitabine]
- SI IAV [CC50/EC50] (recIAV WSN-NanoLuc [1]): SIIAV >100 SIRSV >111 HIV, IAV [49], [50]
- SI RSV [CC50/EC50] [2]: SIIAV >100 SIRSV >111 HIV, IAV [49], [50]
- EC50 (recRSV A2-L19F-renilla): 0.05 µM
- EC50 (recIAV WSN-NanoLuc [4]): 0.1 µM
- CC50 (in vitro): > 10 µM

Compound: Nc1nc(N)c2nc(CNc3ccc(C(=O)N[C@@H](CCC(=O)O)C(=O)O)cc3)cnc2n1 [Aminopterin]
- SI IAV [CC50/EC50] (recIAV WSN-NanoLuc [1]): SIIAV 111 SIRSV 143 conf. broad spectrum [79], [80]
- SI RSV [CC50/EC50] [2]: SIIAV 111 SIRSV 143 conf. broad spectrum [79], [80]
- EC50 (recRSV A2-L19F-renilla): 0.05 µM
- EC50 (recIAV WSN-NanoLuc [4]): 0.09 µM
- CC50 (in vitro): 10 µM
